Assay results published in PubChem BioAssay AID1963826 (Molecular Pharmacology Branch, DTP, NCI, 2024).

Tested on: 926638-142-R-J1-PDC complex spheroid viability
Experiment: Anticancer human tumor 926638-142-R-J1-PDC patient-derived endometrial carcinoma cell line growth inhibition [POLQ]
Conditions: for IC50: curve of first compound; for viability, T/C: stronger effect = lower value
How it was run: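 PDC + HUVEC + MSC complex spheroids; POLQ inhibitors ± partner drugs; top conc. at/near clinical Cmax, else 10 microM (SN-38 1 microM), half-log dilutions; 37 degrees C, 5% CO2.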

[1] = second compound 0.0316 µM, first compound 0.0316 µM
[2] = second compound 0.0316 µM, first compound 0.1 µM
[3] = second compound 0.0316 µM, first compound 0.316 µM
[4] = second compound 0.0316 µM, first compound 1 µM
[5] = second compound 0.0316 µM, first compound 3.16 µM
[6] = second compound 0.0316 µM, first compound 10 µM
[7] = second compound 0.1 µM, first compound 0.0316 µM
[8] = second compound 0.1 µM, first compound 0.1 µM
[9] = second compound 0.1 µM, first compound 0.316 µM
[10] = second compound 0.1 µM, first compound 1 µM
[11] = second compound 0.1 µM, first compound 3.16 µM
[12] = second compound 0.1 µM, first compound 10 µM
[13] = second compound 0.316 µM, first compound 0.0316 µM
[14] = second compound 0.316 µM, first compound 0.1 µM
[15] = second compound 0.316 µM, first compound 0.316 µM
[16] = second compound 0.316 µM, first compound 1 µM
[17] = second compound 0.316 µM, first compound 3.16 µM
[18] = second compound 0.316 µM, first compound 10 µM
[19] = second compound 1 µM, first compound 0.0316 µM
[20] = second compound 1 µM, first compound 0.1 µM
[21] = second compound 1 µM, first compound 0.316 µM
[22] = second compound 1 µM, first compound 1 µM
[23] = second compound 1 µM, first compound 3.16 µM
[24] = second compound 1 µM, first compound 10 µM
[25] = second compound 3.16 µM, first compound 0.0316 µM
[26] = second compound 3.16 µM, first compound 0.1 µM
[27] = second compound 3.16 µM, first compound 0.316 µM
[28] = second compound 3.16 µM, first compound 1 µM
[29] = second compound 3.16 µM, first compound 3.16 µM
[30] = second compound 3.16 µM, first compound 10 µM
[31] = second compound 10 µM, first compound 0.0316 µM
[32] = second compound 10 µM, first compound 0.1 µM
[33] = second compound 10 µM, first compound 0.316 µM
[34] = second compound 10 µM, first compound 1 µM
[35] = second compound 10 µM, first compound 3.16 µM
[36] = second compound 10 µM, first compound 10 µM
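Further: spheroids exposed to drugs for one week before readout.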
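Wherever viability, T/C is given: percent viability relative to DMSO vehicle control wells set as 100%.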

## CC1COCCN1c1cc(C2(S(C)(=N)=O)CC2)nc(-c2ccnc3[nH]ccc23)n1 (centres undefined) + Nc1ccc(C#CCN(C(=O)Cc2ncc(C(F)(F)F)cc2C(F)(F)F)c2ccc(F)cc2)nn1
Second compound 0.0316 µM
  IC50: 5200 nM
Second compound 0.1 µM
  IC50: 4680 nM
Second compound 0.316 µM
  IC50: 5470 nM
Second compound 1 µM
  IC50: 4850 nM
Second compound 3.16 µM
  IC50: 3930 nM
Second compound 10 µM
  IC50: 5630 nM
[1]
  viability, T/C: 111%
[2]
  viability, T/C: 108%
[3]
  viability, T/C: 93.2%
[4]
  viability, T/C: 82.3%
[5]
  viability, T/C: 71%
[6]
  viability, T/C: 28.3%
[7]
  viability, T/C: 111%
[8]
  viability, T/C: 110%
[9]
  viability, T/C: 97.4%
[10]
  viability, T/C: 77.9%
[11]
  viability, T/C: 63.6%
[12]
  viability, T/C: 28.9%
[13]
  viability, T/C: 99.4%
[14]
  viability, T/C: 104%
[15]
  viability, T/C: 91.9%
[16]
  viability, T/C: 84.3%
[17]
  viability, T/C: 65.9%
[18]
  viability, T/C: 32.8%
[19]
  viability, T/C: 103%
[20]
  viability, T/C: 106%
[21]
  viability, T/C: 90.4%
[22]
  viability, T/C: 80%
[23]
  viability, T/C: 64.4%
[24]
  viability, T/C: 28.9%
[25]
  viability, T/C: 100%
[26]
  viability, T/C: 98.9%
[27]
  viability, T/C: 99.5%
[28]
  viability, T/C: 92.6%
[29]
  viability, T/C: 54.7%
[30]
  viability, T/C: 29.7%
[31]
  viability, T/C: 98.5%
[32]
  viability, T/C: 90.6%
[33]
  viability, T/C: 87.9%
[34]
  viability, T/C: 90.9%
[35]
  viability, T/C: 70.2%
[36]
  viability, T/C: 29.8%

## CCc1cc2c(N3CCc4c(cc(Cn5ccnc5)cc4-c4cn(C)nc4C(F)(F)F)C3=O)cc(C)nc2c(OC)n1 + Nc1ccc(C#CCN(C(=O)Cc2ncc(C(F)(F)F)cc2C(F)(F)F)c2ccc(F)cc2)nn1
Second compound 0.0316 µM
  IC50: 1130 nM
Second compound 0.1 µM
  IC50: 426 nM
Second compound 0.316 µM
  IC50: 829 nM
Second compound 1 µM
  IC50: 478 nM
Second compound 3.16 µM
  IC50: 728 nM
Second compound 10 µM
  IC50: 503 nM
[1]
  viability, T/C: 86.9%
[2]
  viability, T/C: 66.6%
[3]
  viability, T/C: 65.4%
[4]
  viability, T/C: 43.6%
[5]
  viability, T/C: 51.3%
[6]
  viability, T/C: 33.6%
[7]
  viability, T/C: 90.7%
[8]
  viability, T/C: 66.7%
[9]
  viability, T/C: 52.7%
[10]
  viability, T/C: 40.9%
[11]
  viability, T/C: 42.1%
[12]
  viability, T/C: 28.2%
[13]
  viability, T/C: 83%
[14]
  viability, T/C: 70.4%
[15]
  viability, T/C: 55%
[16]
  viability, T/C: 47.8%
[17]
  viability, T/C: 44.1%
[18]
  viability, T/C: 27.6%
[19]
  viability, T/C: 69.3%
[20]
  viability, T/C: 69.8%
[21]
  viability, T/C: 56.6%
[22]
  viability, T/C: 37.9%
[23]
  viability, T/C: 43.5%
[24]
  viability, T/C: 30.1%
[25]
  viability, T/C: 76.3%
[26]
  viability, T/C: 58.2%
[27]
  viability, T/C: 57%
[28]
  viability, T/C: 47.2%
[29]
  viability, T/C: 46.9%
[30]
  viability, T/C: 31.6%
[31]
  viability, T/C: 60.2%
[32]
  viability, T/C: 63.8%
[33]
  viability, T/C: 53.8%
[34]
  viability, T/C: 39.6%
[35]
  viability, T/C: 42%
[36]
  viability, T/C: 27.2%
